Holding throughout (experiment): DTP human tumour cell line panel, 48 h
Test [1] has as its system UO-31.
The subject of test [2] is MOLT-4.
Test [3] relates to NCI/ADR-RES.
Test [4] has as its system MDA-MB-231.
For test [5], the system named is SK-MEL-5.
Test [6] has as its system SK-OV-3.
Test [7] has as its system NCI-H522.
Test [8] deals with NCI-H460.
The test system of test [9] is M14.
Test [10] deals with OVCAR-5.
The subject of test [11] is SF-295.
In test [12] the test system is MDA-MB-435.
For test [13], the system named is IGROV-1.
Test [14] relates to SF-268.
Test [15] has as its system HCT-15.
Test [16] deals with UACC-257.
Test [17] has as its system HOP-92.
Test [18] deals with RXF 393.
Test [19] relates to HL-60.

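Cells were grown in 96-well plates and exposed to each compound for 48 hours at five concentrations; endpoints were interpolated linearly between bracketing concentrations, or set to the highest concentration if not reached. At the GI50, growth is halved.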 Calls of active or inactive are those of the source. Cut-off read from the data, not from the text of the source: active = GI50 up to about 1.1 µM and inactive = higher. A value given as a limit tells only on which side of the number the result lay.

With `c1ccc2c(c1)CCc1c-2n(CCN2CCCCC2)c2ccccc12`, the GI50 is 11.4 µM (inactive) in test [1]; 13.9 µM (inactive) in test [2]; 16.8 µM (inactive) in test [3]; 13.2 µM (inactive) in test [4]; 0.564 µM (active) in test [5]; 23.7 µM (inactive) in test [6]. Besides, the GI50 in test [7] was 13.5 µM (inactive); in [8], 15.6 µM (inactive); in test [9] it was 13.5 µM (inactive); in [10] it was 15.5 µM (inactive); in [11], 16.9 µM (inactive); in test [12], 25.4 µM (inactive). Also, the GI50 is 11.4 µM (inactive) in test [13]; 21.2 µM (inactive) in test [14]; 10.6 µM in test [15]; 17.2 µM (inactive) in test [16]; 16.4 µM (inactive) in [17].

For `COc1ccc(C(OCC2OC3(COC(c4ccccc4)(c4ccc(OC)cc4)c4ccc(OC)cc4)C(Oc4nc(=O)ccn43)C2O)(c2ccccc2)c2ccc(OC)cc2)cc1` (configuration not stated), the GI50 in [1], in test [2], in test [3], in [4], in [5] and in test [6] was > 100 µM (inactive) each time. Besides, the GI50 in [7], in [18], in test [9], in test [10], in test [11] and in test [12] was > 100 µM (inactive) throughout. Besides, the GI50 in [13] is > 100 µM (inactive); in test [19], > 100 µM (inactive); in test [14], > 100 µM (inactive); in test [15], greater than 100 µM; in test [16] it was > 100 µM (inactive).

As for `COC(=O)c1c(C)cc(OC)c(C/C=C(\C)CCCc2coc(C=C(C)C)c2)c1OC`, the GI50 was > 100 µM (inactive) in [1]; 37.4 µM (inactive) in test [2]; > 100 µM (inactive) in test [3]; > 100 µM (inactive) in [4]; > 100 µM (inactive) in [5]; 14.9 µM (inactive) in test [7]. Besides, the GI50 in test [8], in [9], in test [10], in [11], in test [12] and in test [13] was > 100 µM (inactive) each time. Moreover, the GI50 in test [19] is 21.9 µM (inactive); in [14], 1.71 µM (inactive); in [15], greater than 100 µM; in test [16] it was > 100 µM (inactive); in [17], > 100 µM (inactive).

Regarding `Cc1nn(-c2ccccc2)c2nc3ccc(Cl)cc3c(-c3ccccc3)c12`, the GI50 in [1], in [2], in [3], in [4], in [5] and in test [6] was > 100 µM (inactive) throughout. For the same molecule, the GI50 in test [7], in test [8], in test [9], in test [10], in test [11] and in test [12] was > 100 µM (inactive) throughout. Moreover, the GI50 was > 100 µM (inactive) in [13], > 100 µM (inactive) in test [14], greater than 100 µM in [15] and > 100 µM (inactive) in test [17].

As usually defined, the GI50 is the concentration at which growth is held to half of that of the control.

The values are drawn from ChEMBL document CHEMBL1201862, “PubChem BioAssay data set” (2004).
